ChEMBL document CHEMBL3886620, “Substituted imidazopyrazines as Akt kinase inhibitors” (2016)

Assays:
[1] = biological target: RAC-alpha serine/threonine-protein kinase (Homo sapiens, UniProt P31749); assay: (§1) Akt1 TR-FRET assay: His-tagged human recombinant kinase full-length Akt1 expressed in insect cells was purchased form Invitrogen (part number PV 3599). As substrate for the kinase reaction the biotinylated peptide biotin-Ahx-KKLNRTLSFAEPG (C-terminus in amide form) was used which can be purchased e.g. from the company Biosynthan GmbH (Berlin-Buch, Germany). For the assay 50 nl of a 100 fold concentrated solution of the test compound in DMSO was pipetted into a black low volume 384 well microtiter plate (Greiner Bio-One, Frickenhausen, Germany), 2 μl of a solution of Akt1 in assay buffer [50 mM TRIS/HCl pH 7.5, 5 mM MgCl2, 1 mM dithiothreitol, 0.02% (v/v) Triton X-100 (Sigma)] were added and the mixture was incubated for 15 min at 22 °C. to allow prebinding of the test compounds to the enzyme before the start of the kinase reaction. Then the kinase reaction was started by the addition of 3 μl of a solution of adenosine-tri-phosphate (ATP, 16.7 μM=>final conc. in the 5 μl assay volume is 10 μM) and substrate (1.67 μM=>final conc. in the 5 μl assay volume is 1 μM) in assay buffer and the resulting mixture was incubated for a reaction time of 60 min at 22 °C. […]
RAC-alpha serine/threonine-protein kinase, sequence (P31749 whole entry): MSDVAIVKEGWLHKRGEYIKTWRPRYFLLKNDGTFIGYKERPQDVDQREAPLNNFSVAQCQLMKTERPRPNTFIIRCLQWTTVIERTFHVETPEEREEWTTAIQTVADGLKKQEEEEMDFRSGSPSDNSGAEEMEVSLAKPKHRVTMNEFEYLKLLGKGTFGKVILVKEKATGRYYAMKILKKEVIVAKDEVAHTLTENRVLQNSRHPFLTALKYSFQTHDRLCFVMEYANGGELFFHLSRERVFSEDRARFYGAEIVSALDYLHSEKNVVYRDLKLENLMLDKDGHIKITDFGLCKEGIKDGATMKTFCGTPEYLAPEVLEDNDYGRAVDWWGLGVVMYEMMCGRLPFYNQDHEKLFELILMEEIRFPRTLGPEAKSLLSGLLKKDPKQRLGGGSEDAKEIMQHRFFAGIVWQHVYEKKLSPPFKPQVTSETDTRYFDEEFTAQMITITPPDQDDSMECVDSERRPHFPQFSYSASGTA

[2] = biological target: RAC-beta serine/threonine-protein kinase (Homo sapiens, UniProt P31751); assay: as §1, with “Akt2 TR-FRET” for “Akt1 TR-FRET”, “full-length Akt2” for “full-length Akt1”, “cells and activated by PDK1” for “cells”, “purchased from” for “purchased form”, “PV 3975).” for “PV 3599).”, “of Akt2” for “of Akt1”
RAC-beta serine/threonine-protein kinase, sequence (P31751 whole entry): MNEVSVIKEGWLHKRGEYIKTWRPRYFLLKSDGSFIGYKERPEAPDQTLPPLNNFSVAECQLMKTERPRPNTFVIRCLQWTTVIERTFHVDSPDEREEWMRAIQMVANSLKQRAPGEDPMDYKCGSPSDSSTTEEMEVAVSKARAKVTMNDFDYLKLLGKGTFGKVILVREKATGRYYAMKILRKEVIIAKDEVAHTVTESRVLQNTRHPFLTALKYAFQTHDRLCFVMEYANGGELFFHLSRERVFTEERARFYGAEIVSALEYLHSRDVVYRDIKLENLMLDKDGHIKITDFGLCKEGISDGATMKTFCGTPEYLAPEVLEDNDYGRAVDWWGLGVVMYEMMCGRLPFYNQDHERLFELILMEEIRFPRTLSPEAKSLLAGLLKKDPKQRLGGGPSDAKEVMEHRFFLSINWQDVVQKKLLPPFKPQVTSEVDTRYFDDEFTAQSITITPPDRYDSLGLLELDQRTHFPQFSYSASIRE

IC50 [1]: 100 nM
IC50 [2]: 130 nM
Compound: CCOC(=O)c1cn2c(-c3ccccc3)c(-c3ccc(C4(N)CCC4)cc3)nc2cn1
